From patent US10011813B2, “Methane oxidation methods and compositions” (California Institute of Technology, priority 2015, dated 2018) come the findings set out here.

The subject of data set [1] is methane seep sediment (ANME archaea). The data set can be described thus: AOM rate measurement via 13C-methane (newly formed DIC) in methane seep sediment incubations. The conditions noted are these: for Rate relative to AOM with sulfate: 10 mM; for DIC formed: after 21-day incubation. The format is cell-based, ANME-2a and ANME-2c. An excerpt:
General description of methane oxidation measurements via ^13C-methane. Methane oxidation was quantified by determining the production of inorganic carbon (“CO2”). Accurate quantification of the concentration of inorganic carbon formed from methane oxidation is challenging due to 4 main reasons:
A defined amount of added DIC in artificial, buffered seawater was used with a low calcium concentration to prevent carbonate precipitation (see medium composition). As ^13CH4 was the only ^13C-enriched carbon source added, the newly formed ^13C-DIC must be derived from methane. For low methane oxidation rates (less than ca. 5% relative to sulfate as the oxidant or electron acceptor), however, enzyme-catalyzed isotope exchange between methane and DIC, needs to be taken into account, because it contributes to ^13C enrichment of the DIC without net methane oxidation, resulting in an overestimation of net methane oxidation. […] Details of both methods, the ^13CH4 experiments and the standard addition are described herein.
Incubation conditions for AOM rate measurement. Each incubation vial was set up with 1.0 cm^3 wet sediment (wet sediment=volume of sediment after allowing the sediment slurry settle for 48 h) in total slurry volume of […] as follows: Sterile serum vials were closed with butyl rubber stoppers (volume=12.9 ml after closing) and flushed with methane. 1.0 mL ^13CH4 (99% ^13C, Cambridge Isotope Laboratories, containing 0.05 vol % ^13CO2 as an impurity) was introduced anaerobically. 2.0 mL of artificial, anaerobic seawater containing 2.5× the target concentration of the corresponding electron acceptor was injected into the serum vial cooled on ice. For AQDS and 1,5-AQDS, this was a suspension corresponding to 25 mM (see TABLE 3).
The 1 L pyrex bottle with the sediment in the sulfate-free medium (1 part wet sediment in 3 parts of slurry volume) was vigorously shaken each time and 3.0 mL of slurry immediately removed and injected into the individual serum bottles. Each stoppered serum vial was supplemented with unlabeled methane (0.250 MPa overpressure: pressure gauge SSI Technologies, Inc., Media Gauge™) shaken and stored inverted at 4° C. (final headspace: 0.35 MPa methane, with ca. 4% ^13CH4). The exact fractional abundance of ^13C in the methane was quantified via ^1H-NMR spectroscopy for individual incubations.
AOM rate measurements (quantification of newly formed DIC based on ^13CH4). For ^13C-DIC analysis, 0.25 mL of the medium above the settled sediment in the microcosm was sampled with a disposable needle and syringe at each time point (same intervals for all experiments) and centrifuged (16000 rcf, 5 min). The supernatant was transferred into 0.6 mL eppendorf tubes, flash frozen in N2 (l), and stored at −20° C. until measurement. 150 μL of the thawed supernatant was then added to He-flushed vials containing 100 μL H3PO4 (85%). The resulting CO2 was analyzed for the isotopic enrichment (^13F(tn)) on a GC-IR-MS GasBench II (Thermo Scientific). The amount of DIC newly formed (Δ[DIC](tn), see FIG. 6B) was calculated from the measured ^13F (fractional abundance of ^13C), neglecting isotope effects on AOM according to Equation (1): Δ[DIC](tn)=[DIC](t0)*(^13F(tn)−^13F(t0))/(^13F(CH4)−^13F(tn)) (EQ. 1)

Data set [2] relates to methane seep sediment. The data set can be described thus: Control experiments without methane (sediment with AQDS under nitrogen). The format is cell-based. The following applies: AQDS 10 mM, after 3 weeks. How it is done: (§1) Quantification of reduced AQDS by iodometry. Reduced AQDS (2,6-AQH2DS) was quantified via iodimetric titration in the anaerobic chamber. A standard solution of ca. 20 mM KI3 was prepared as follows: iodine (254 mg, 2.0 mmol) and potassium iodide (1.66 g, 10 mmol) were dissolved in 100 mL DI water. After 2 days, the clear, dark solution was N2-sparged and brought into the anaerobic chamber. The exact concentration of the KI3 standard solution was quantified to be 19.5 mM via duplicate titration with sodium thiosulfate (exactly 101.5 mM, N2-sparged). Procedure for the quantification of reduced AQDS in the incubations: 1000 μL anaerobic assay solution centrifuged in the anaerobic chamber+200 μL anaerobic HEPES (1.0 M, pH=7.5)+KI3 standard solution as needed until color minimum, added in steps of 100 μL first, then in steps of 10 μL when closer to the equivalence point.
Control experiments without methane. […] To confirm that the methanotrophic microorganisms in the sediment had not been killed during the nitrogen+AQDS incubation, methane was later injected into these incubation bottles after 3 weeks.

A short description of data set [3]: Quantification of AQDS solubility in the incubation medium. The format is physicochemical. How it is done:
Quantification of AQDS solubility in the incubation medium. Different regioisomers of AQDS (1,5-AQDS, 2,6-AQDS and 2,7-AQDS) were separately added to the modified artificial seawater described above, to a targeted final concentration of 25 mM. The suspensions were ultra-sonicated at room temperature to dissolve as much of the AQDS as possible. The tubes were kept at 4° C. or at 22.5° C. overnight. The tubes were centrifuged at 4° C. or 22.5° C. (16000 rcf, 30 min). The supernatant (300 μL) was mixed with 300 μL acetate (10.0 mM) as the internal standard and 100 μL deuterated water (99.9% D, Cambridge Isotope Laboratories) was added. The concentration of AQDS was obtained from integration of the ^1H-NMR spectra by comparison relative to the acetate standard.

Data set [4] concerns methane seep sediment (ANME archaea). As to the kind of experiment: AOM rate measurement via 13C-methane (newly formed DIC) in methane seep sediment incubations. The format is cell-based, ANME-2a and ANME-2c. The following applies: 22.5° C.
The test system is the same in data set [5]. As to the kind of experiment: Quantification of reduced AQDS by iodometry in AOM incubations. The format is cell-based, ANME-2a and ANME-2c. The following applies: after 21-day incubation. The procedure:
as §1

Converted amounts (≈) assume the structure as drawn. “And” between values parts separate entries of the source, which are not always exact repeats. Equal values may be shown once.

As to `O=C1c2ccc(S(=O)(=O)O)cc2C(=O)c2ccc(S(=O)(=O)O)cc21` [AQDS, 9,10-anthraquinone-2,6-disulfonate], the “Rate relative to AOM with sulfate” value is listed as 74% in data set [1] (no MoO4^2−) and 83% in data set [1] (with 25 mM MoO4^2−). For the same compound, the “DIC formed from 13C-methane per vial” value in data set [1] (50 mmol AQDS (10 mM), no sulfate, 21-day incubation at 4° C.) is on record as “approximately 12.5 mmol”. Further, the DIC formed is 2.59 mM and 2.82 mM in data set [1] (AQDS 10 mM + MoO4^2− 25 mM); 2.39 mM and 2.64 mM in data set [1] (AQDS 10 mM, 4° C.). The “initial rates of AOM compared with sulfate” value in data set [1] (first 6 days, 4° C.) is listed as “equivalent”. The “reduced AQDS generated without methane” value in data set [2] is “less than 1 mM”. For the same compound, the “Solubility in the incubation medium” value in data set [3] (4° C.) was 900 µM (≈ 332 µg/mL); in data set [3] (22.5° C.), 1900 µM (≈ 700 µg/mL). Also, the “AOM rates compared with sulfate” value in data set [4] is “exceeded”. In addition, the “AQH2DS (final concentration of reduced AQDS)” value in data set [5] (AQDS 10 mM + MoO4^2− 25 mM) is 9.2 mM and 9.8 mM; in data set [5] (AQDS 10 mM), 8.6 mM and 9.6 mM.
